23 compounds from the Deep4Chem optical property database can be followed below.

The first series is described as follows: solvent given as SMILES. The conditions noted are these: in C1CCCCC1.
The compound `CN(C)c1ccc(C#Cc2ccc(-c3nc(C#N)c(C#N)n3C)cc2)cc1` had an emission maximum of 406 nm.
Still for that read-out and setting: in the case of `Cc1cc2c(o1)c(C)cc1ccc(=O)oc12` it was 360 nm.
On the same count and under the same terms, in the case of `[C-]#[N+]c1ccc(-c2ccc(N(C)C)cc2)cc1` it was 360 nm; in that of `COc1cc(/C=C/C(=O)CC(=O)/C=C/c2ccc(O)c(OC)c2)ccc1O`, 446 nm.

Staying with this series, now noted: in C1CCOC1.
Regarding `CN(C)c1ccc(C2=Nc3sc4ccccc4[n+]3[B-](F)(F)O2)cc1`, the emission maximum is on record as 469 nm.
The same measure, in the same setting: to `COc1cc2c(cc1/C=C(\C#N)c1nc3ccccc3s1)c1ccccc1n2C` belongs 499 nm.
On the same count and under the same terms, to `CN1c2ccccc2C(O)(c2ccccc2)c2cc([N+](=O)[O-])ccc21` (stereo unspecified) belongs 501.3 nm.
On the same count and under the same terms, to `[C-]#[N+]c1ccc(-c2ccc(N(C)C)cc2)cc1` belongs 408 nm.
Compound `CSc1sc(C(=O)c2ccccc2)c2nn[nH]c(=O)c12` had an emission maximum of 482 nm.
The same measure, in the same setting: to `N#Cc1c[nH]c2ccccc12` belongs 314 nm; to `O=Cc1cc(O)c(C=O)cc1O`, 468 nm.
Still for that read-out and setting: to `N#Cc1cccc2cc[nH]c12` belongs 368 nm.

The same series, now with this note: in C1COCCO1.
The compound `Cc1cc2c(o1)c(C)cc1ccc(=O)oc12` registered an emission maximum of 380 nm.
Still for that read-out and setting: in the case of `[C-]#[N+]c1ccc(-c2ccc(N(C)C)cc2)cc1` it was 397 nm; in that of `N#Cc1c[nH]c2ccccc12`, 305 nm.
As for `O=Cc1cc(O)c(C=O)cc1O`, the emission maximum is 468 nm.
The compound `O=c1[nH]c(=O)n([C@@H]2O[C@H](CO)[C@@H](O)[C@H]2O)cc1-c1cc2ccccc2s1` had an emission maximum of 435 nm.
The same measure, in the same setting: to `N#Cc1cccc2cc[nH]c12` belongs 367 nm.

The same series, now with this note: in CC1CCCO1.
`Cn1c(=O)nc2n(C)c3ccccc3nc-2c1=O` registered an emission maximum of 490 nm.

The same series, now with this note: in CC#N.
For `CN(C)c1ccc(C2=Nc3sc4ccccc4[n+]3[B-](F)(F)O2)cc1`, the emission maximum was determined as 486 nm.
On to `Cn1c(=O)nc2n(C)c3ccccc3nc-2c1=O`, for which the emission maximum was found to be 529 nm.
In the case of `CN(C)c1ccc(C#Cc2ccc(-c3nc(C#N)c(C#N)n3C)cc2)cc1`, the emission maximum amounted to 514 nm.
On the same count and under the same terms, to `Cc1cccc(-c2[nH]c(=O)n3c2-c2ccccc2C3=O)c1O` belongs 480 nm; to `O=C(O)c1ccc(-c2ccc(-c3nc(-c4ccccc4)c4ccccn34)cc2)s1`, 485 nm.
Still for that read-out and setting: in the case of `COc1cc2c(cc1/C=C(\C#N)c1nc3ccccc3s1)c1ccccc1n2C` it was 509 nm.
`Cc1cc2c(o1)c(C)cc1ccc(=O)oc12`: the emission maximum stood at 435 nm.
On the same count and under the same terms, in the case of `CC1=[N+]2C(=C(c3ccccc3)c3c4c(c(C)n3[B-]2(F)F)CCc2ccccc2-4)C2=C1CCc1ccccc12` it was 612 nm; in that of `CN1c2ccccc2C(O)(c2ccccc2)c2cc([N+](=O)[O-])ccc21` (stereo unspecified), 557 nm; in that of `[C-]#[N+]c1ccc(-c2ccc(N(C)C)cc2)cc1`, 429 nm.
Same read-out and setting: to `CNCCCC1c2ccccc2C=Cc2ccccc21` belongs 358 nm.
On the same count and under the same terms, to `CSc1sc(C(=O)c2ccccc2)c2nn[nH]c(=O)c12` belongs 485 nm.
`COC(=O)/C=C/c1sc(-c2ccc(N(C)C)s2)c(-c2ccsc2)c1N` registered an emission maximum of 557 nm.
Take `N#Cc1c[nH]c2ccccc12`: the emission maximum was 313 nm.
On the same count and under the same terms, to `O=Cc1cc(O)c(C=O)cc1O` belongs 474 nm; to `CCNc1cc2c(cc1C)C(c1ccccc1C(=O)O)=C1CCCC(/C=C/C3=[N+](C)c4ccccc4C3(C)C)=C1O2`, 728 nm.
Same read-out and setting: in the case of `O=c1[nH]c(=O)n([C@@H]2O[C@H](CO)[C@@H](O)[C@H]2O)cc1-c1cc2ccccc2s1` it was 443 nm; in that of `COc1cc(/C=C/C(=O)CC(=O)/C=C/c2ccc(O)c(OC)c2)ccc1O`, 538 nm; in that of `N#Cc1cccc2cc[nH]c12`, 378 nm.

The series is the same for the next values; noted with them: in CC(C)=O.
As for `CN(C)c1ccc(C2=Nc3sc4ccccc4[n+]3[B-](F)(F)O2)cc1`, the emission maximum is 482 nm.
Still for that read-out and setting: to `[C-]#[N+]c1ccc(-c2ccc(N(C)C)cc2)cc1` belongs 422 nm; to `O=Cc1cc(O)c(C=O)cc1O`, 470 nm.

The same series, now with this note: in CC(C)O.
Turning to `N#Cc1c[nH]c2ccccc12`, the emission maximum is on record as 315 nm.
As to `N#Cc1cccc2cc[nH]c12`, the emission maximum was found to be 380 nm.

Staying with this series, now noted: in CCCCCC.
Turning to `[C-]#[N+]c1ccc(-c2ccc(N(C)C)cc2)cc1`, the emission maximum is on record as 357 nm.

Staying with this series, now noted: in CCCCCCC.
The compound `c1ccc2cc3c(cc2c1)-c1cccc2c1c-3cc1ccccc12` gave an emission maximum of 401 nm.

The same series, now with this note: in CCCO.
Take `O=Cc1cc(O)c(C=O)cc1O`: the emission maximum stood at 491 nm.

The series is the same for the next values; noted with them: in CCO.
Compound `O=c1c2cc(F)c(N3CCOCC3)cc2sc2cc(N3CCOCC3)c(F)cc12` displayed an emission maximum of 481 nm.
`Cc1cc2c(o1)c(C)cc1ccc(=O)oc12` came in with an emission maximum of 460 nm.
The same measure, in the same setting: to `CN1c2ccccc2C(O)(c2ccccc2)c2cc([N+](=O)[O-])ccc21` (stereo unspecified) belongs 536.2 nm; to `CSc1sc(C(=O)c2ccccc2)c2nn[nH]c(=O)c12`, 489 nm.
On the same count and under the same terms, to `N#Cc1c[nH]c2ccccc12` belongs 314 nm; to `N#Cc1ncc(-c2c3ccccc3c(-c3cnc(C#N)nc3)c3ccccc23)cn1`, 520 nm; to `O=Cc1cc(O)c(C=O)cc1O`, 491 nm.
The same measure, in the same setting: in the case of `CCNc1cc2c(cc1C)C(c1ccccc1C(=O)O)=C1CCCC(/C=C/C3=[N+](C)c4ccccc4C3(C)C)=C1O2` it was 721 nm; in that of `COCc1ncc(-c2c3ccccc3c(-c3cnc(COC)nc3)c3ccccc23)cn1`, 420 nm; in that of `N#Cc1cccc2cc[nH]c12`, 382 nm.

Staying with this series, now noted: in CCOC(C)=O.
`COc1cc2c(cc1/C=C(\C#N)c1nc3ccccc3s1)c1ccccc1n2C` came in with an emission maximum of 493 nm.
Same read-out and setting: to `[C-]#[N+]c1ccc(-c2ccc(N(C)C)cc2)cc1` belongs 406 nm.

Still in this series, the particulars now being: in CN(C)C=O.
Take `COc1cc2c(cc1/C=C(\C#N)c1nc3ccccc3s1)c1ccccc1n2C`: the emission maximum amounted to 508 nm.
Same read-out and setting: in the case of `[C-]#[N+]c1ccc(-c2ccc(N(C)C)cc2)cc1` it was 433 nm.
Still for that read-out and setting: to `CSc1sc(C(=O)c2ccccc2)c2nn[nH]c(=O)c12` belongs 492 nm; to `O=Cc1cc(O)c(C=O)cc1O`, 492 nm; to `COc1cc(/C=C/C(=O)CC(=O)/C=C/c2ccc(O)c(OC)c2)ccc1O`, 542 nm.

Staying with this series, now noted: in CN(C)P(=O)(N(C)C)N(C)C.
`O=Cc1cc(O)c(C=O)cc1O` gave an emission maximum of 493 nm.

The same series, now with this note: in CNC=O.
Consider `O=Cc1cc(O)c(C=O)cc1O`, for which the emission maximum amounted to 479 nm.

Still in this series, the particulars now being: in CO.
In the case of `CN(C)c1ccc(C#Cc2ccc(-c3nc(C#N)c(C#N)n3C)cc2)cc1`, the emission maximum was found to be 489 nm.
